Measured values published in US11419856B2, “Pharmaceutical combinations for use in the treatment of neoplastic diseases” (Basilea Pharmaceutica International AG, priority 2017, dated 2022).
Read-outs that look alike come from different tables or passages of the source.

Experiments:
Jurkat-GFP cells = experiment: Apoptosis assay (EGFP/FACS) in Jurkat-GFP cells; format: cell-based, human; conditions: data not shown; for EC50: Homo sapiens, read-out: EC50, induction of apoptosis; for maximal apoptosis induction: maximum of dose-response curve
Description: The following human cell line was used: MDA-MB-231 (ATCC: HTB-26). In addition the following enhanced green fluorescent protein (EGFP)-transfected human cell lines were used: NCI-H460 (ATCC: HTB-177) (H460GFP) and Jurkat (ATCC: TIB-152) (JurkatGFP). NCI-H460 and Jurkat cell lines were cultured in RPMI-1640 tissue culture medium containing 10% (v/v) fetal calf serum, 2 mM glutamine, non-essential amino acids and 50 μg/ml penicillin/streptomycin (Complete medium) (Sigma, Buchs, Switzerland). The MDA-MB-231 cell line was cultured in Dulbecco's Modified Eagle Medium (DMEM) (high glucose) tissue culture medium containing 10% (v/v) fetal calf serum, 1 mM sodium pyruvate and 50 μg/ml penicillin/streptomycin (i.e. Complete Medium) (Sigma, Buchs, Switzerland).
General growth conditions were 37° C. and 7.5% CO2. For the microtubule destabilization assay cell lines were cultured in 5% CO2.
The assays were performed in commercially available sterile 96-well U-bottom or 24-well flat-bottom tissue culture plates (Falcon). A defined number of test cells expressing enhanced green fluorescent protein (EGFP) (H460 cells: 600 μl of 30′000 cells/ml in 24-well flat-bottom plates, Jurkat cells: 600 μl of 400′000 cells/ml in […]) were plated either 24 hours before treatment in case of the adherent H460 cell line, or one hour prior to the start of the treatment for Jurkat cells. Between seeding and addition of compounds, the cells were incubated at 37° C. under 7.5% CO2. Subsequently, BAL27862 and eribulin (Halaven®, Ch.-B. 60363CRN1, Eisai) which were dissolved in Complete Medium were both added from stock solutions at 5× the final concentration in 200 μl to the wells, resulting in a final well-volume of 1 ml. The test plates were then incubated for the indicated time. For time course experiments with Jurkat cells, the 96-well plates were removed shortly at the indicated time from the incubator, shaken in order to suspend the cells and an aliquot of 200 μl cell suspension was then transferred to a 96-well U-bottom plate and measured immediately on a fluorescence-activated cell sorting (FACS)-Canto II with a high through-put sampler (HTS)-module. […]
The quantification of the relative amount of apoptotic cells within a cell population was determined according to the Reference of Strebel et al., Cytometry 2001, 43(2), Green Fluorescent Protein as Novel Tool to Measure Apoptosis and Necrosis). By monitoring the EGFP fluorescence activity excited at […] and measured at […] on a FACS-Cantoll™, it is possible to distinguish between proliferating cells, apoptotic cells and necrotic cells within the same cell population. […] As a readout the relative abundance of the cells belonging to M2 (apoptotic population) were expressed.

MDA-MB-231 cells = experiment: Soft agar clonogenic (colony outgrowth) assay, anti-proliferative IC50; format: cell-based; conditions: Homo sapiens
Description: Cells were plated in soft agar in 24-well plates according to the assay introduced by Hamburger & Salmon (Primary bioassay of human tumor stem cells, Science, 1977, 197:461-463). Each test well contained three layers of equal volume: 2 layers of semi-solid medium (bottom and top layer), and one layer of medium supernatant, with or without test compound (drug overlay on top of the semi-solid medium layer).
The bottom agar layer consisted of 0.2 mL/well IMDM supplemented with 20% (v/v) fetal calf serum, penicillin/streptomycin 50 μg/mL and 0.75% (w/v) bacto agar (BD Biosciences, #214050). For the top agar layer, 10′000-20′000 cells were added to 0.2 mL of the same IMDM medium supplemented with 0.35% (w/v) bacto agar and plated onto the bottom layer. For the drug overlay, the test compounds were applied by continuous exposure in 0.2 mL IMDM medium on top of the two agar layers. The drug overlay was added directly after seeding the cells as 3-fold concentrated solution and changed carefully every 3-4 days. Every 24-well plate contained untreated controls and samples in duplicates. Cultures were incubated at 37° C. and 5% CO2 for 6-14 days. 24 hours prior to evaluation, vital colonies were stained with a sterile aqueous solution of 2-(4-iodophenyl)-3-(4-nitrophenyl)-5-phenyltetrazolium chloride (Sigma, #I-8377, 1 mg/mL, 100 μL/well) (Alley M C et al., Life Sci. 1982, 31:3071-3078) and were counted with an automatic image analysis system (GelCount, Oxford Optronix). IC50-values were determined by plotting compound concentrations versus relative colony counts. Relative drug effects were expressed by the maximum effect of the mean number of colonies in the treated wells in comparison to the control wells.

A549 = experiment: Soft agar assay, IC50 of single agents in A549; format: cell-based; conditions: Homo sapiens
Description: Example 5: Determination of Drug Interaction in Cell Lines by Soft Agar Assay
The combination of BAL101553 with eribulin was tested in various cell lines by soft agar assay. Table 1 and Table 2 present the results according to coefficient of drug interaction based on colony number (Table 1) and total area of colonies (Table 2). In both cases the coefficient of drug interaction is calculated according to the formula described in Zhao et al., J Intercult Ethnopharmacol. 2014, 3(2): 68-72): (combination/untreated)/[(compound1/untreated)×(compound2/untreated)]

[1] = read-out: IC50 values in soft agar assay
[2] = soft agar clonogenic assay, data not shown, read-out: anti-proliferative IC50

## N#CCCNc1nonc1-c1nc2ccccc2n1CC(=O)c1ccc(N)cc1 [BAL27862, 3-(4-{1-[2-(4-Amino-phenyl)-2-oxo-ethyl]-1H-benzoimidazol-2-yl}-furazan-3-ylamino)-propionitrile]
Jurkat-GFP cells
  EC50: 15 nM
  maximal apoptosis induction: 70-80%
MDA-MB-231 cells; [1]
  IC50: 12 nM
MDA-MB-231 cells; [2]
  IC50: 12 nM
A549
  IC50: 25 nM

## C=C1C[C@@H]2CC[C@@]34C[C@H]5O[C@H]6[C@@H](O3)[C@H]3O[C@H](CC[C@@H]3O[C@H]6[C@H]5O4)CC(=O)C[C@@H]3[C@@H](OC)[C@@H](C[C@H](O)CN)O[C@H]3C[C@H]3O[C@@H](CC[C@@H]1O2)C[C@@H](C)C3=C.CS(=O)(=O)O [Eribulin, (2R, 3R, 3aS, 7R, 8aS, 9S, 10aR, 11S, 12R, 13aR, 13bS, 15S, 18S, 21S, 24S, 26R, 28R, 29aS)-2-[(2S)-3-Amino-2-hydroxypropyl]-3-methoxy-26-methyl-20,27-dimethylidenehexacosahydro-11,15:18,21:24,28-triepoxy-7,9-ethano-12,15-methano-9H,15H-furo[3,2-i]furo[2′,3′:5,6]pyrano[4,3-b][1,4]dioxacyclopentacosin-5(4H)-one methanesulfonate (salt)]
Jurkat-GFP cells
  EC50: 0.8 nM
  maximal apoptosis induction: about 70%
MDA-MB-231 cells; [1]
  IC50: 0.111 nM
MDA-MB-231 cells; [2]
  IC50: 0.1 nM
A549
  IC50: 0.25 nM
